“Also recorded” adds a separate entry of the source.
Legend:
[1] = tested on: chlorogenic acid formation in lettuce midribs; assay: Chlorogenic acid concentration in treated wounded midribs (HPLC); format: in vivo, lettuce (iceberg, Romaine); settings: 5 d at 5° C.; for chlorogenic acid concentration: L-cysteine 4.1 mM or melatonin 4.3 mM; for effect on chlorogenic acid concentration: iceberg and Romaine, vs wounded
Description: (§1) In all tests, experimental setup began immediately upon arrival to the laboratory. 90 outer leaves were randomly selected from 18 to 22 lettuce heads that met commercial and damage-free quality standards. A midrib segment (12.5 cm) was excised from the center of each leaf and excess leaf blade tissue was trimmed parallel to the midrib. This procedure was adapted from the wounding procedure of Cantwell (2016). Each midrib was then partially sliced transversally at 1.3-cm increments along the midrib. Midribs (n=15) were immediately immersed for 30 s in one of five treatment solutions: deionized water (wounded control), L-cysteine (4.1 mM), naringenin (1.8 mM) with 20% dimethyl sulfoxide (DMSO), serotonin (2.8 or 5.7 mM) or melatonin (4.3 mM) with 0.50% DMSO. Immediately following immersion, the midribs for each treatment were patted dry using paper towels and placed (n=5) in a breathable, high-density polyethylene bag (n=3) (Narrow Profile Produce Bags [14×18 inches] Model No. S-19156, Uline®, Pleasant Prairie, WI). Unwounded control midribs were stored in the same manner. To allow for direct comparison, each cut site on each midrib was assigned an initial discoloration value on day 1 based on the coloration of the rib. Samples were stored at 5° C. with 95-98% relative humidity (RH) for 5 d, simulating commercial storage.
Unwounded, wounded, and compound-treated wounded midrib samples were collected for untargeted metabolite analysis to identify global metabolite changes in response to melatonin application and targeted metabolite analysis to quantify chlorogenic acid a major caffeoyl compound in lettuce. For both targeted and untargeted metabolite analyses, fresh samples (500-800 mg) of the midribs from each treatment (n=3) were weighed, then immediately frozen in liquid nitrogen and stored at −80° C. for subsequent metabolite extraction. Frozen samples were extracted with a 50% methanol extraction solution containing a 1:1 (v:v) of methanol with deionized water. Samples were completely submerged in a 1:1.5 (w:v) of the sample weight (mg) to extraction solution volume (μL), respectively, and incubated at 65° C. for 90 min and then centrifuged at 9660×g for 10 min (MC-12 High Speed Micro Centrifuge, Benchmark Scientific, Edison, NJ). The supernatant was transferred to a new tube and filtered with a 0.45 μm filter (Choice, Thermo Scientific, Wilmington, DE). An aliquot of 400 μL was vacuum-dried.
For chlorogenic acid quantification, vacuum-dried samples were resuspended with 50 μL of 50% methanol. A 10 μL volume of extract was analyzed on an UltiMate 3000 High Performance Liquid Chromatography (HPLC) system (Thermo Fisher Scientific, Ward Hill, MA, USA) equipped with a diode array detector (DAD) in the UV-VIS region 200 to 500 nm. The compounds were separated on an Acclaim™ RSLC PA2 column (150 mm×2.1 mm; 2.2 μm) (Thermo Fisher Scientific, Ward Hill, MA, USA) coupled with a C18 guard column (10 mm×3 mm; 5 μm). The mobile phase consisted of solvent A (0.1% formic acid (v/v) in water) and solvent B (100% acetonitrile), and the gradient as follows: 5% to 20% increase of solvent B at 0.3 to 0.4 min, 20% to 25% increase solvent B at 5.25 to 12.5 min, 25% to 95% increase solvent B at 12.5 to 16.5 min, and 95% solvent B at 16.5 to 20 min. The flow rate was 0.4 mL min^−1 and the column temperature was 40° C. The level of chlorogenic acid was quantified based on the peak area at 328 nm and the standard curve using authentic standard (Sigma Aldrich; St. Louis, MO, USA).
The imaging data (a* value), enzyme activity (PAL and PPO), and metabolite (chlorogenic acid) results were expressed as mean±standard error and analyzed by lettuce type (iceberg or Romaine). For imaging data, an unpaired t-test was used to identify differences within a treatment throughout storage and among treatment groups at each time point. Treatment groups were defined as wounded, unwounded, L-cysteine, and melatonin. […]

[2] = tested on: iceberg and Romaine lettuce midribs; assay: Visual (subjective) pink rib development in wounded, immersed lettuce midribs stored at 5° C.; format: in vivo; settings: for duration of inhibition of pink rib development: 30 s immersion, 5° C.; for effect on pink rib discoloration: iceberg and Romaine
Experimental: Six preliminary experiments were performed to determine treatment conditions for the three final experiments reported here. It was determined that the method developed by Cantwell (2016) induced pink rib discoloration in lettuce midribs during storage at 5° C. via mimicking mechanical damage and was, therefore, selected for use in all preliminary and final tests. […] Concentrations evaluated were: L-cysteine (0.4, 0.8, 2.1, 4.1, 8.3 mM), naringenin (0.2, 0.4, 0.9, 1.8, 3.7 mM), serotonin (2.8, 5.7 mM), and melatonin (0.2, 0.4, 1.1, 2.2, 4.3 mM) (data not presented). […] Therefore, this study employed the one or two concentrations for each compound with the greatest potential efficacy in three independent tests, Test 1 to 3 (Table 1).
For Test 1, the evaluations for pink rib development, protein quantification, and enzyme activity were conducted with Romaine and iceberg lettuce heads (36 heads per type; cultivars unknown) purchased (February 2020) upon arrival at a local grocery store in Gainesville, FL, and immediately transported to the Postharvest Horticulture Laboratory at the University of Florida in Gainesville, FL. For Test 2, metabolite extraction and detection were conducted with commercially grown, harvested, and cooled Romaine (‘Tall Guzmaine’) and iceberg (‘Chosen’) lettuce (December 2020) grown in Belle Glade, FL. For Test 3, untargeted metabolomics was performed using commercially grown, harvested, and cooled Romaine (‘Manatee’) lettuce grown in Belle Glade, FL (April 2021). To keep the lettuce head samples cool while preventing freeze damage during transport, a 3- to 6-inch layer of crushed ice was placed on the bottom of each 114-L cooler. A piece of waxed, corrugated fiberboard was placed on top of the ice prior to packing with the lettuce samples for transport the same day to the Postharvest Horticulture Laboratory in Gainesville (approximately 4 h distant).
as §1
All chemicals were of laboratory or reagent grade from Alfa Aesar (Thermo Fisher Scientific, Ward Hill, MA, USA) or Phyto Technology Laboratories (Shawnee Mission, KS, USA). L-cysteine (4.1 mM) solution was prepared by dissolving […] in 100 ml deionized water. Naringenin (1.8 mM) solution was prepared by dissolving […] in 20 mL of DMSO and diluting to a 100 mL volume with deionized water. A stock solution of serotonin (5.7 mM) was prepared by dissolving 100 mg of serotonin in 100 ml of deionized water; a second solution of serotonin (2.8 mM) was prepared by diluting the stock solution two-fold with deionized water. […]

| SMILES | chlorogenic acid concentration ([1]; Romaine) [µg/g] | effect on chlorogenic acid concentration [1] | chlorogenic acid concentration ([1]; iceberg) [µg/g] | duration of inhibition of pink rib development ([2]; melatonin 4.3 mM, Romaine, vs wounded control) [days] | duration of inhibition of pink rib development ([2]; melatonin 4.3 mM, iceberg, vs wounded control) [days] | pink rib discoloration (visual) ([2]; melatonin 4.3 mM, Romaine, over 5 d at 5° C. (P=0.0058)) | effect on pink rib discoloration ([2]; melatonin 4.3 mM, 5 d at 5° C., vs controls) | effect on pink rib discoloration ([2]; L-cysteine 4.1 mM, up to 5 d at 5° C., vs wounded control) |
| --- | --- | --- | --- | --- | --- | --- | --- | --- |
| COc1ccc2[nH]cc(CCNC(C)=O)c2c1 [melatonin] | 3.11 | neither L-cysteine nor melatonin significantly reduced chlorogenic acid concentration; also recorded: neither enzyme activity (PAL or PPO) nor chlorogenic acid concentration were impacted; also recorded: did not significantly affect PAL or PPO enzyme activities nor formation of chlorogenic acid | 1.55 | 3 | 5 | slight (2=slight) | equal to or similar to unwounded controls; also recorded: dramatically less pink rib discoloration | – |
| N[C@@H](CS)C(=O)O [L-cysteine] | 3.11 | neither L-cysteine nor melatonin significantly reduced chlorogenic acid concentration | 1.55 | – | – | – | – | negligible effect on reducing pink rib; also recorded: equal or greater discoloration; also recorded: significantly higher discoloration than the control after 5 d; also recorded: ineffective in reducing pink rib; also recorded: neither PPO activity nor pink rib expression were reduced |
